In patent publication US20030134348A1, “Recombinant bioluminescent bacteria Escherichia coli DH5@/pSodaLux (EBHJ1) [KCTC 10098BP] for monitoring oxidative stress” (priority 2001, published 2003):

Assays:
[1] = system: Escherichia coli DH5@/pSodaLux (EBHJ1) [KCTC 10098BP]; assay type: cell-based; conditions: for bioluminescence in dependence on concentration of the toxic material: sodA promoter::LuxCDABE reporter, 96-well luminometer, 30° C., 0-2048 ppm, FIGS. 3-6
Description: The bioluminescent bacteria Escherichia coli DH5@/pSodaLux (EBHJ1) were cultured in a shaking incubator of 30° C. at 250 rpm, in the LB medium [DIFCO, USA] containing 25 μg/ml of kanamycin [Sigma Co., USA] until the OD reaches 0.8 at 600 nm. Then, 2 ml of the culture was cultured for about 4 hr in 100 ml of LB medium. […] The bioluminescence was measured at 30° C. with a 96-well luminometer [DYNEX Technologies, USA].
The bioluminescence is measured in BL (bioluminescence intensity). Increase in bioluminescence can be determined by comparing the bioluminescence when toxic material was injected (sample bioluminescence) and that when no toxic material was injected (control bioluminescence). The RBL (relative bioluminescence) is calculated by the following Equation 1. [formula]

[2] = system: Escherichia coli DH5@/pSodaLux (EBHJ1) [KCTC 10098BP]; experiment: Growth inhibition of the recombinant bioluminescent bacteria; assay type: cell-based; conditions: around 50 ppm

C[n+]1ccc(-c2cc[n+](C)cc2)cc1 [paraquat dichloride]
bioluminescence ([1]; around 50 ppm): substantial bioluminescence | bioluminescence in dependence on concentration of the toxic material [1]: proportionally increasing bioluminescence | growth inhibition [2]: little growth inhibition

[Cl][Cd][Cl] [cadmium chloride]
bioluminescence in dependence on concentration of the toxic material [1]: the bioluminescence increased with the concentration

OO [hydrogen peroxide]
bioluminescence in dependence on concentration of the toxic material [1]: proportionally increasing bioluminescence
